Assay results from patent US12486290B2, “Isoindolinone and indazole compounds for the degradation of EGFR” (C4 THERAPEUTICS, INC., priority 2019, dated 2025).

What was measured:
[1] = biological target: T1, EGFR T790M/L858R (NCI-H1975 cells) (Homo sapiens, UniProt P00533, L858R/T790M); assay: EGFR (L858R) degradation analysis, Total EGFR (L858R) HTRF, NCI-H1975 cells; assay type: cell-based; conditions: 6 hours
T1 construct: NCI-H1975 (harboring EGFR heterozygous T790M/L858R mutations); host or cells: NCI-H1975
Description: (§1) NCI-H1975 (harboring EGFR heterozygous T790M/L858R mutations) and NCI-H3255 (harboring EGFR heterozygous L858R mutation) were purchased from ATCC and NCI, respectively. NCI-H1975+CS (harboring EGFR heterozygous T/790M/L858R/C797S mutations) was generated using CRISPR technology to introduce the additional C797S mutation by Horizon Discovery. RPMI 1640 no-phenol red medium and fetal bovine serum (FBS) were purchased from Gibco (Grand Island, NY, USA). Cell culture flasks and 384-well microplates were acquired from VWR (Radnor, PA, USA). Total EGFR (L858R) HTRF assay kits were purchased from Cisbio (Bedford, MA, USA).
(§2) Degradation of EGFR protein containing L858R mutation was determined based on quantification of FRET signal using Total EGFR (L858R) HTRF assay kit. Test compounds were added to the 384-well plate from a top concentration of 10 μM with 11 points, half log titration in duplicates. NCI-H1975, NCI-H1975+CS or NCI-H3255 cells were added into 384-well plates at a cell density of 10000, 10000 or 1000 cells per well, respectively. The plates were kept at 37° C. with 5% CO2 for 6 hours. Cells treated in the absence of the test compound were the negative control. Positive control was set by wells containing all reagents but no cells. FRET signal was acquired on EnVision™ Multilabel Reader (PerkinElmer, Santa Clara, CA, USA).

[2] = biological target: T2, EGFR L858R (NCI-H3255 cells) (Homo sapiens, UniProt P00533, L858R); assay: EGFR (L858R) degradation analysis, Total EGFR (L858R) HTRF, NCI-H3255 cells; assay type: cell-based; conditions: 6 hours
T2 construct: NCI-H3255 (harboring EGFR heterozygous L858R mutation); host or cells: NCI-H3255
Description: as §1, §2

T2 sequence (P00533 25-1210 L858R): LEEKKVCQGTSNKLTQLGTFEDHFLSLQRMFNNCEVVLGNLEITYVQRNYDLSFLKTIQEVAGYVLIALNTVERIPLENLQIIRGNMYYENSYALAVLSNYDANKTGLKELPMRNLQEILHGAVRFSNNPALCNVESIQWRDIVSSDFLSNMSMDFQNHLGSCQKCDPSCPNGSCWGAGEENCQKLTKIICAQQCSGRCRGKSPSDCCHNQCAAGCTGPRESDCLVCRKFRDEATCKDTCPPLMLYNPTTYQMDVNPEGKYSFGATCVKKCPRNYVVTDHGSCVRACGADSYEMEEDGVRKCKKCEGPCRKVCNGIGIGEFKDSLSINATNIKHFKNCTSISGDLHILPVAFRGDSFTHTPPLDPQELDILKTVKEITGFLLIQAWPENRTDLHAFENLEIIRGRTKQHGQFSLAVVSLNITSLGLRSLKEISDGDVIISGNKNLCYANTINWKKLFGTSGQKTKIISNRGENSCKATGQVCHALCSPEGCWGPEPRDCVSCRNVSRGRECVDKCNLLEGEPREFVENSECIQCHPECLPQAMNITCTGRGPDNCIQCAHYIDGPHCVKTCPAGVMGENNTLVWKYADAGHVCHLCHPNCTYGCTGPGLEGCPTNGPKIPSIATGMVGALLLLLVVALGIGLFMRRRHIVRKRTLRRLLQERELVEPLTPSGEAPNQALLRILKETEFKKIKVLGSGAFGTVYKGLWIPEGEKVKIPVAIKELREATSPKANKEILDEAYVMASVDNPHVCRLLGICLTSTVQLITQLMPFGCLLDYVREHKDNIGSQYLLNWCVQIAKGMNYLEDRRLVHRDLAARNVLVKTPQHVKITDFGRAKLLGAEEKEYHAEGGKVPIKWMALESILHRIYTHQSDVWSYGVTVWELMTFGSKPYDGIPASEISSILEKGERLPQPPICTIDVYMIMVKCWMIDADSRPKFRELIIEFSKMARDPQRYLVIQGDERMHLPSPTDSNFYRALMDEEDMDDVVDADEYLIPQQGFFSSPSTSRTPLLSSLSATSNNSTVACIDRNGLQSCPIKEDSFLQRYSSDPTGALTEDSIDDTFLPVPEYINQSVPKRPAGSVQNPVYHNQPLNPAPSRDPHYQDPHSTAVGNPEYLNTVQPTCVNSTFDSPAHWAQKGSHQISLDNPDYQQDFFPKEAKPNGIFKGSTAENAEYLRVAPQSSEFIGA
T1 sequence (P00533 25-1210 T790M/L858R): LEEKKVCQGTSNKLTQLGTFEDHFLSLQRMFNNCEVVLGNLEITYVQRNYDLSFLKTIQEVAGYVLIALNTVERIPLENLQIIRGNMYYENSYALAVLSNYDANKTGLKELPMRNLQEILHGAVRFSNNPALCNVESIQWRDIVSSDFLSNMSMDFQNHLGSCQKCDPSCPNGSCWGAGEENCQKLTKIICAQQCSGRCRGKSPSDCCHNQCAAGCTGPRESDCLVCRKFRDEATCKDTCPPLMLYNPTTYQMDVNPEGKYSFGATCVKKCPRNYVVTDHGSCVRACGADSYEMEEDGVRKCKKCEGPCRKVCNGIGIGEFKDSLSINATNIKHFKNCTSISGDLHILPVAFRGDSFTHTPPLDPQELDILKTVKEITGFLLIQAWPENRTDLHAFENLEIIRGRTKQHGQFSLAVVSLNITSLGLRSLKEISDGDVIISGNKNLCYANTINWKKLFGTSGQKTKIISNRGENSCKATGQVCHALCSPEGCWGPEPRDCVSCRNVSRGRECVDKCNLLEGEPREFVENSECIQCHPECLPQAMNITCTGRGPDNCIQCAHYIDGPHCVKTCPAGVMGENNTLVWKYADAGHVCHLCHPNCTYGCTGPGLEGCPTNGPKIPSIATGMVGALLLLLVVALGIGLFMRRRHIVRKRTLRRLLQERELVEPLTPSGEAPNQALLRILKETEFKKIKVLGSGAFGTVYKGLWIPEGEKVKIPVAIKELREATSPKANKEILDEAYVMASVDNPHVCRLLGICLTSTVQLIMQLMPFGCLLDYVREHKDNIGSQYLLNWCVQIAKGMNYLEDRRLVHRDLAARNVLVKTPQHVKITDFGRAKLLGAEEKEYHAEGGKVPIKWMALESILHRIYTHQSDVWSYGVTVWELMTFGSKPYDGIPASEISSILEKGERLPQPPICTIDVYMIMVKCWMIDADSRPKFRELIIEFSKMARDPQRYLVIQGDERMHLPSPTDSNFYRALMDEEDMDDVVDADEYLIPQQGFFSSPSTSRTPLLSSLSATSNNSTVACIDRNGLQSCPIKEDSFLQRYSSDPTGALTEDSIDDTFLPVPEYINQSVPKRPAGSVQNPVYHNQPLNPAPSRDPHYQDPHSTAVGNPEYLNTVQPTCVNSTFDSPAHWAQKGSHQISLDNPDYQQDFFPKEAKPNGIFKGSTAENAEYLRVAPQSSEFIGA

Compound | DC50 [1] | DC50 [2]
O=C1CCC(Nc2ccc(C3CCN(C(=O)CN4CCN(c5ccc(-c6cc(F)c7c(c6)C(=O)N(C(C(=O)Nc6nccs6)c6ncn8c6CCC8)C7)cc5)CC4)CC3)cc2)C(=O)N1 (centres unmarked) [Compound 10, 2-(6,7-dihydro-5H-pyrrolo[1,2-c]imidazol-1-yl)-2-(6-(4-(4-(2-(4-(4-((2,6-dioxopiperidin-3-yl)amino)phenyl)piperidin-1-yl)-2-oxoethyl)piperazin-1-yl)phenyl)-4-fluoro-1-oxoisoindolin-2-yl)-N-(thiazol-2-yl)acetamide] | 0.021 µM | 0.019 µM
O=C1CCC(Nc2ccc(C3CCN(CC(=O)N4CCN(c5ccc(-c6cc(F)c7c(c6)C(=O)N(C(C(=O)Nc6nccs6)c6ncn8c6CCC8)C7)cc5)CC4)CC3)nc2)C(=O)N1 (centres unmarked) [Compound 11, 2-(6,7-dihydro-5H-pyrrolo[1,2-c]imidazol-1-yl)-2-[6-[4-[4-[2-[4-[5-[(2,6-dioxo-3-piperidyl)amino]-2-pyridyl]-1-piperidyl]acetyl]piperazin-1-yl]phenyl]-4-fluoro-1-oxo-isoindolin-2-yl]-N-thiazol-2-yl-acetamide] | 0.02 µM | 0.021 µM
O=C1CCC(Nc2ccc(C3CCN(CC(=O)N4CCN(c5ccc(-c6cc(F)c7c(c6)C(=O)N(C(C(=O)Nc6nccs6)c6ncn8c6CCC8)C7)cc5)CC4)CC3)c(F)c2)C(=O)N1 (centres unmarked) [Compound 12, 2-(6,7-dihydro-5H-pyrrolo[1,2-c]imidazol-1-yl)-2-[6-[4-[4-[2-[4-[4-[(2,6-dioxo-3-piperidyl)amino]-2-fluoro-phenyl]-1-piperidyl]acetyl]piperazin-1-yl]phenyl]-4-fluoro-1-oxo-isoindolin-2-yl]-N-thiazol-2-yl-acetamide] | 0.039 µM | 0.011 µM
O=C1CC[C@H](Nc2ccc(C3CCN(CC(=O)N4CCC(c5ccc(-c6cc(F)c7c(c6)C(=O)N(C(C(=O)Nc6nccs6)c6ncn8c6CCC8)C7)cc5)CC4)CC3)cc2)C(=O)N1 (stereo partly drawn) [Compound 22, 2-(6,7-dihydro-5H-pyrrolo[1,2-c]imidazol-1-yl)-2-(6-(4-(1-(2-(4-(4-(((S)-2,6-dioxopiperidin-3-yl)amino)phenyl)piperidin-1-yl)acetyl)piperidin-4-yl)phenyl)-4-fluoro-1-oxoisoindolin-2-yl)-N-(thiazol-2-yl)acetamide] | 0.031 µM | 0.015 µM
O=C1CC[C@H](Nc2ccc(C3CCN(CC(=O)N4CCN(c5ccc(-c6cc(F)c7c(c6)C(=O)N(C(C(=O)Nc6nccs6)c6ncn8c6CCC8)C7)cn5)CC4)CC3)c(F)c2)C(=O)N1 (stereo partly drawn) [Compound 27, 2-(6,7-dihydro-5H-pyrrolo[1,2-c]imidazol-1-yl)-2-[6-[6-[4-[2-[4-[4-[[(3S)-2,6-dioxo-3-piperidyl]amino]-2-fluoro-phenyl]-1-piperidyl]acetyl]piperazin-1-yl]-3-pyridyl]-4-fluoro-1-oxo-isoindolin-2-yl]-N-thiazol-2-yl-acetamide] | 0.036 µM | 0.02 µM
O=C1CC[C@H](Nc2ccc(C3CCN(CC(=O)N4CCC(n5cc(-c6cc(F)c7c(c6)C(=O)N(C(C(=O)Nc6nccs6)c6ncn8c6CCC8)C7)cn5)CC4)CC3)cc2)C(=O)N1 (stereo partly drawn) [Compound 28, 2-(6,7-dihydro-5H-pyrrolo[1,2-c]imidazol-1-yl)-2-[6-[1-[1-[2-[4-[4-[[(3S)-2,6-dioxo-3-piperidyl]amino]phenyl]-1-piperidyl]acetyl]-4-piperidyl]pyrazol-4-yl]-4-fluoro-1-oxo-isoindolin-2-yl]-N-thiazol-2-yl-acetamide] | 0.016 µM | 0.017 µM
O=C1CC[C@H](Nc2ccc(C3CCN(CC(=O)N4CCC(c5cnn(-c6cc(F)c7c(c6)C(=O)N(C(C(=O)Nc6nccs6)c6ncn8c6CCC8)C7)c5)CC4)CC3)cc2)C(=O)N1 (stereo partly drawn) [Compound 29, 2-(6,7-dihydro-5H-pyrrolo[1,2-c]imidazol-1-yl)-2-[6-[4-[1-[2-[4-[4-[[(3S)-2,6-dioxo-3-piperidyl]amino]phenyl]-1-piperidyl]acetyl]-4-piperidyl]pyrazol-1-yl]-4-fluoro-1-oxo-isoindolin-2-yl]-N-thiazol-2-yl-acetamide] | 0.024 µM | 0.02 µM
